Values of other authors in patent US20180168955A1, “IODINE-CONTAINING ORAL CARE COMPOSITIONS” (priority 2016, published 2018).

II [iodine]
volume of alcohol in which one gram of iodine dissolves (solvent alcohol): 12.5 mL | volume of water in which one gram of iodine dissolves (solvent water): 2950 mL
